Test system: GFP
Assay: GFP preservation, comparison with common excipients
Type: biochemical
Conditions: after 10 cycles of lyophilization, excipient 20 mg/mL, 4 μM GFP
Method: As a model protein, 4 μM GFP was used. Each excipient was prepared at a concentration of 20 mg/mL as described above. Each excipient was mixed with GFP at a 1:1 (v/v) ratio. PBS without excipient was used as a control group. Samples were lyophilized, activity was measured, and relative activity was calculated using the same methods as above.

Compound | GFP stabilizing activity vs BSA | effectiveness as GFP/protein stabilizer
OC[C@H]1O[C@H](O[C@H]2O[C@H](CO)[C@@H](O)[C@H](O)[C@H]2O)[C@H](O)[C@@H](O)[C@@H]1O [trehalose] | comparable | 
OC[C@H]1O[C@@](CO)(O[C@H]2O[C@H](CO)[C@@H](O)[C@H](O)[C@H]2O)[C@@H](O)[C@@H]1O [sucrose] | comparable | 
polyethylene glycol [PEG] |  | not an effective GFP stabilizer
